Results published in US9067920B2, “Compounds useful for inhibiting Chk1” (Eli Lilly and Company, priority 2010, dated 2015).

Biological target: T1, Chk1 (Homo sapiens, UniProt O14757)
T1 sequence (O14757 1-476): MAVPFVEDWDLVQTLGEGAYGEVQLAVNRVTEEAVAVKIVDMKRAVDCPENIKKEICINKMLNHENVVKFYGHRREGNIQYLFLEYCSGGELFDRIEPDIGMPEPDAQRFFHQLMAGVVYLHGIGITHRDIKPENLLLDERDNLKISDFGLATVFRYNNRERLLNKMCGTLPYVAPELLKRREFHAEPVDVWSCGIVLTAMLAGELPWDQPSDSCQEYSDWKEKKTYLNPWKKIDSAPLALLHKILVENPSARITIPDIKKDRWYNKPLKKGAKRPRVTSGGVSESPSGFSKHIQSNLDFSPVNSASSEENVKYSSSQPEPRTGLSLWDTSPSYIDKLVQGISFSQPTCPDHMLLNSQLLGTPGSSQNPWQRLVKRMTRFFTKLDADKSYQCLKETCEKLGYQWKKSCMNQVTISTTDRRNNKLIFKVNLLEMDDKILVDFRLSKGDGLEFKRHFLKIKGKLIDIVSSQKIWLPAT
Test: Chk1 autophosphorylation cell based assay (phospho-Chk1 serine 296 immunoblot, doxorubicin-treated HeLa cells)
Parameters: endogenous in cells; host or cells: HeLa
Settings: 100 nM doxorubicin, 2 h compound, read-out: EC50 (inhibition of doxorubicin induced Chk1 autophosphorylation)
Method: An inhibitor of Chk1 will prevent the kinase activity of the protein from phosphorylating substrates in cells in which the DNA damage response has been activated. An easily detectable substrate for Chk1 is an autophosphorylation site on Chk1 itself, serine 296. The following immunoblot assay can be used to measure the amount of phosphorylation of serine 296 on Chk1 and indirectly the activity level of the Chk1 protein kinase, HeLa cells are cultured in MEM w/Earle's Balanced Salt Solution with L-glutamine supplemented with 10% (v/v) heat inactivated fetal bovine serum, 1×MEM non-essential amino acids, 1× sodium pyruvate and 1×10^5 cells plated in 600 μL of MEM culture media per well of a […] cell culture plate. Cells are incubated for 24 h at 37° C., 5% CO2 and […]. Sixteen μL of a 4 μM stock of doxorubicin in culture media are added to each appropriate well to make a final concentration of 100 nM doxombicin. Plates are returned to the incubator for 24 additional hours prior to Chk1 inhibitor compound addition. […] Antigen-antibody-reporter conjugates immobilized on the membrane are detected with the Super Signal Western Femto HRP-detection reagent using a FUJI LAS-4000 imaging system. Phospho-Chk1 (ser296) band intensities are calculated using “Total Lab” software (Nonlinear Dynamics). […]

EC50: < 1 nM
Structure (SMILES): COc1nc(C)ccc1-c1cc(Nc2cncc(O[C@@H]3CCCNC3)n2)[nH]n1 [Example 1, (R)-[5-(2-Methoxy-6-methyl-pyridin-3-yl)-2H-pyrazol-3-yl]-[6-(piperidin-3-yloxy)-pyrazin-2-yl]-amine]
